Experimental data from patent US5496697A, “Methods and apparatus for detecting the effect of cell affecting agents on living cells” (priority 1993, dated 1996).
Where two headings read alike, the source gives them in different places.

How the values were obtained:
[1] = system: normal human keratinocytes; test: metabolic rate of normal human keratinocytes exposed to irritants in the micro flow chamber (silicon sensor); assay type: cell-based; details: for IC50: Homo sapiens, Keratinocyte, read-out: -log10 (MRD50) (converted)
[2] = cited from earlier work
MES-SA [3] = details: previously characterized; cited from earlier work
Dx5 = test: cytotoxicity in Dx5 in the silicon microphysiometer; details: for time at which cytotoxicity is manifest: 100 μM, Dx5
MES-SA [4] = test: cytotoxicity in MES-SA in the silicon microphysiometer
PGE1 receptor = test: metabolic rate of M1C-2 cells stimulated through the PGE1 receptor; assay type: cell-based, mouse; details: PGE1, FIG. 27
MDCK cells [5] = test: metabolic rate of MDCK cells grown on the silicon sensor surface; assay type: cell-based, canine
MDCK cells [6] = test: metabolic rate of MDCK cells grown on a cover slip; assay type: cell-based, canine; details: for inhibition at 10000 µM: 10 mM theophylline
MDCK cells [7] = test: steady-state potential of MDCK cells grown on the silicon sensor surface; assay type: cell-based, canine
Text: It contains information on the pH of the small aqueous compartment between the cells and the sensor, and it contains information about trans-cellularpotentials, which are essentially batteries in series with the electronic circuit of the sensor.
The steadystate potential reported by the sensor (with fluid flow on) decreased gradually from the time the sensor was activated until the PMA was introduced. […] This signal is a composite of the trans-cellular potential and the sub-cellular pH (changes in the latter corresponding to 59 mV per pH unit).

MDCK cells [8] = test: metabolic rate of MDCK cells exposed to MgCl; assay type: cell-based, canine; details: 10 mM MgCl
MDCK cells [9] = test: cells; details: Canis lupus familiaris
Experimental: MDCK cells in a confluent T-75 flask were trypsinized in order to remove them from their growth container. The cells were centrifuged at 2000 RPM for 5 minutes and the supernatant was discarded. The cells were resuspended in 5 mL of medium and centrifuged for 5 minutes at 3000 RPM. […] The cells were centrifuged for 3 minutes at 3000 RPM to pellet the cells. A 2 μL aliquot was taken directly from the cell pellet and spread over an approximate area of 40 mm^2 on the silicon sensor surface (in a partially assembled chamber).

E. coli = test: response of E. coli to antibiotics in the flow cell; assay type: cell-based; details: FIG. 24
L cells [10] = system: L cells
L cells [11] = test: cells; details: Mus musculus, 8 min, read-out: peak metabolic activity
Proteus mirabilis = assay type: cell-based; details: carbon source in medium; FIG. 22
Text: While this method of serial delivery of selective substrates has certain potential advantages, parallel delivery of selective substrates to separate catches of bacteria could also be useful under certain circumstances. Furthermore, if bacteria are used for screening for antibiotic susceptibility or antibiotic activity, parallel delivery to separate catches may well be more appropriate because of potential problems of intereactions of drugs.
The bacteria, E. coli and Proteus mirabilis , were prepared as suspensions of about 5×10^8 cells/mL in a growth medium and then diluted into a sterile test medium containing glucose (Bactopeptone, 2 g/L; NACl, 5 g/L; K2 HPO4, 1.7 mM; glucose, 1 g/L; pH 7.3 ). With the controlling electrode piston in the raised position, as disclosed in pending U.S. patent application, Ser. No. 876,925, filed Jun. 20, 1986, now U.S. Pat. No. 5,292,846 one mL of bacterial suspension containing a known number of bacteria was flowed through the device such that the cells were retained adjacent to the silicon sensor surface by a Nucleopore membrane situated parallel to the surface. The cells were pulsed with the same glucose containing test medium, the piston was then lowered to decrease the volume surrounding the cells, and the change in pH due to bacterial metabolism was monitored. […] After lowering the piston the pH change was again monitored. […]

[12] = system: murine macrophage-like line P388D1; test: acidification rate of P388D1 cells trapped in etched wells; assay type: cell-based
Experimental: For many types of mammalian cells, a confluent monolayer (equivalent to about 10^7 cells/mL) commonly produces acidification rates within a factor of two of 100 μV/s. At 59 mV per pH and medium buffer capacity of 1 mM, this corresponds to a calculated net rate of H+ production of ~1·10^8 /s for a typical cell. The metabolic sources of these protons depend on the nutrients in the culture medium and the metabolic pathways that are active in the cells. Some insight into this can be gained using auxiliary biochemical measurements and specific metabolic poisons.
It is reversible, with a recovery time of about 20 min. after the removal of the uncoupler. Dose-response experiments show a maximum stimulation of the acidification rate near 2-5 μM CCCP, Presumably the mechanism is a combination of increased CO2 production and the stimulation of glycolysis to maintain homeostasis.

[13] = classification by in vivo tests such as the Draize test
[14] = concentrations necessary to depress metabolism of keratinocytes

Compound: C[S+](C)[O-] [Dimethyl sulfoxide]
- recovery of metabolic rate after washout of irritant ([1]; separate test, FIG. 13): recover from DMSO but not from ethanol was shown
- In-Vivo Irritancy ([2]; in vivo): Mild

Compound: CCCCCCCCCCCCOS(=O)(=O)[O-].[Na+] [Na dodecyl sulfate, sodium dodecyl sulfate]
- IC50 [1]: 0.126 mM
- In-Vivo Irritancy [2, 13]: Severe-moderate

Compound: CCO [Ethanol]
- recovery of metabolic rate after washout of irritant ([1]; FIG. 12): substantial recovery
- recovery of metabolic rate after washout of irritant ([1]; separate test, FIG. 13): not from ethanol
- In-Vivo Irritancy [2, 13]: Moderate-mild

Compound: CC(C)=O [Acetone]
- In-Vivo Irritancy [2, 13]: Moderate-mild

Compound: COc1cccc2c1C(=O)c1c(O)c3c(c(O)c1C2=O)C[C@@](O)(C(=O)CO)C[C@@H]3O[C@H]1C[C@H](N)[C@H](O)[C@H](C)O1 [doxorubicin]
- sensitivity of MES-SA (MES-SA [3]): sensitive
- time at which decreased acidification rates are evident (Dx5; 1 μM doxorubicin, Dx5, FIG. 45): > 50 h
- time at which cytotoxicity is manifest (Dx5): 2.5 h
- time at which decreased acidification rates are evident (MES-SA [4]; 1 μM doxorubicin, FIG. 45): 15 h
- time at which cytotoxicity is manifest (MES-SA [4]; 100 μM): 0.5 h

Compound: CCCCC[C@H](O)/C=C/[C@H]1[C@H](O)CC(=O)[C@@H]1CCCCCCC(=O)O [PGE1, prostaglandin E1]
- increase in metabolic rate at peak (PGE1 receptor): 80%
- time of peak (PGE1 receptor): approximately 1000 seconds
- time of return to base line metabolic rates (PGE1 receptor): 4000 s

Compound: Cn1c(=O)c2[nH]cnc2n(C)c1=O [theophylline]
- activation at 111 µM (MDCK cells [5]; Canis lupus familiaris, MDCK, read-out: increase in metabolic rate vs. control values on removal, after 111 μM theophylline): 28%
- inhibition at 111 µM (MDCK cells [5]; Canis lupus familiaris, MDCK, 111 μM theophylline (therapeutic level), read-out: decrease in metabolic rate): ~10%
- inhibition at 10000 µM (MDCK cells [5]; Canis lupus familiaris, MDCK, 10 mM theophylline, read-out: decrease in metabolic rate vs. control value): 47%
- time of return of metabolic rate to the control value (MDCK cells [5]; after removal of 10 mM theophylline): ten
- inhibition at 10000 µM (MDCK cells [6]; Canis lupus familiaris, MDCK, initial, read-out: decrease in metabolic rate): 59%
- inhibition at 10000 µM (MDCK cells [6]; Canis lupus familiaris, MDCK, read-out: metabolic rate below the control value after gradual increase): 48%
- activation at 10000 µM (MDCK cells [6]; Canis lupus familiaris, MDCK, after 10 mM theophylline, read-out: increase of metabolic rate over the control value on removal): 30%

Compound: CCCCCCCCCCCCCC(=O)O[C@@H]1[C@@H](C)[C@@]2(O)[C@@H](C=C(CO)C[C@]3(O)C(=O)C(C)=C[C@@H]23)[C@@H]2C(C)(C)[C@]12OC(C)=O [PMA, Phorbol myristate acetate]
- rise in metabolic rate at the peak (MDCK cells [5]; 10 ng/ml PMA): more than a doubling
- time of peak of metabolic rate (MDCK cells [5]; 10 ng/ml PMA): near an hour later
- metabolic rate upon addition of PMA (MDCK cells [6]; cover slip, data not shown): increase in metabolic rate
- steady-state potential reported by the sensor (MDCK cells [7]; 10 ng/ml PMA): dropped quickly to a minimum
- time to minimum of steady-state potential (MDCK cells [7]; 10 ng/ml PMA): about forty
- steady-state potential after removal of PMA (MDCK cells [7]; by the end of the experiment): returned to a value near its initial one

Compound: [Cl-].[Cl-].[Mg+2] [MgCl, magnesium chloride]
- increase in metabolic rate vs. medium only (MDCK cells [8]): 40-46%

Compound: benzalkonium chloride [Benzalkonium Cl]
- decrease of cellular metabolic rate between two successive administrations ([1]; 30 μg/ml): real decrease of cellular metabolic rate between the two administrations
- recovery of metabolic rate after washout of irritant ([1]; FIG. 12): no recovery was obtained
- -log10 (MRD50) [1, 14]: 4.1
- In-Vivo Irritancy [2, 13]: Severe

Compound: CNC[C@H](O)c1ccc(O)c(O)c1 [epinephrine]
- activation at 3 µM (MDCK cells [5]; Canis lupus familiaris, MDCK, read-out: additional increase in metabolic rate on re-exposure): 7%
- activation at 3 µM (MDCK cells [5]; Canis lupus familiaris, MDCK, read-out: increase in metabolic rate): 20%
- activation at 3 µM (MDCK cells [5]; Canis lupus familiaris, MDCK, read-out: increase in metabolic rate over the control rate on re-exposure): 20%
- activation at 3 µM (MDCK cells [5]; Canis lupus familiaris, MDCK, read-out: metabolic rate above control rate after removal): 12%
- inhibition at 208 µM (MDCK cells [9]; read-out: decrease in metabolic rate vs. medium only): 3%
- inhibition at 3 µM (MDCK cells [9]; read-out: decrease in metabolic rate vs. rate immediately after removal of the higher concentration): 4.5%

Compound: CC[C@]1(O)C[C@H]2CN(CCc3c([nH]c4ccccc34)[C@@](C(=O)OC)(c3cc4c(cc3OC)N(C=O)[C@H]3[C@@](O)(C(=O)OC)[C@H](OC(C)=O)[C@]5(CC)C=CCN6CC[C@]43[C@@H]65)C2)C1 [vincristine]
- sensitivity of MES-SA (MES-SA [3]): sensitive
- time at which cytotoxicity is manifest (Dx5): 10 h
- time at which cytotoxicity is manifest (MES-SA [4]; 100 μM vincristine, FIG. 46): 5 h

Compound: NC(=O)CC[C@@H]1NC(=O)[C@H](Cc2ccccc2)NC(=O)[C@H](Cc2ccc(O)cc2)NC(=O)[C@@H](N)CSSC[C@@H](C(=O)N2CCC[C@H]2C(=O)N[C@@H](CCCN=C(N)N)C(=O)NCC(N)=O)NC(=O)[C@H](CC(N)=O)NC1=O [vasopressin]
- increase in metabolic rate over control values (MDCK cells [5]): 14%
- increase in metabolic rate over the rate in 0.1 μM vasopressin (MDCK cells [5]): 19%
- increase over the control rate value (MDCK cells [5]): 42%
- increase in metabolic rate (MDCK cells [6]): no increase in metabolic rate was observed

Compound: CC1(C)S[C@@H]2[C@H](NC(=O)Cc3ccccc3)C(=O)N2[C@H]1C(=O)O [penicillin]
- response to antibiotic (E. coli): do not respond

Compound: polymyxin
- response to antibiotic (E. coli): do respond

Compound: CCCCO [n-Butanol, 1-butanol]
- IC50 [1, 14]: 20 mM
- In-Vivo Irritancy [2, 13]: Moderate

Compound: CC(C)[C@@H]1NC(=O)[C@H](C)OC(=O)[C@@H](C(C)C)NC(=O)[C@@H](C(C)C)OC(=O)[C@H](C(C)C)NC(=O)[C@H](C)OC(=O)[C@@H](C(C)C)NC(=O)[C@@H](C(C)C)OC(=O)[C@H](C(C)C)NC(=O)[C@H](C)OC(=O)[C@@H](C(C)C)NC(=O)[C@@H](C(C)C)OC1=O [valinomycin]
- peak metabolic rate relative to the initial rate (L cells [10]): more than double the initial rate
- time of return of metabolic activity approximately to the initial value (L cells [10]): ≤ 20 min
- time to peak of metabolic activity (L cells [10]): four
- fold induction at 100 µM (L cells [11]): ~2.4

Compound: CC[C@H](C)[C@@H]1NC(=O)[C@H](Cc2ccc(O)cc2)NC(=O)[C@@H](N)CSSC[C@@H](C(=O)N2CCC[C@H]2C(=O)N[C@@H](CC(C)C)C(=O)NCC(N)=O)NC(=O)[C@H](CC(N)=O)NC(=O)[C@H](CCC(N)=O)NC1=O [oxytocin]
- immediate change in metabolic rate (MDCK cells [6]): did not result in any immediate change
- recovery of metabolic rate after removal (MDCK cells [6]): 100%
- time to full recovery of metabolic rate after removal (MDCK cells [6]): up to 10 minutes
- gradual decrease of metabolic rate (MDCK cells [6]; mdck, 1 µM): up to 10%

Compound: O=C[C@H](O)[C@@H](O)[C@H](O)[C@H](O)CO [glucose]
- change of pH (Proteus mirabilis): decreased the pH

Compound: N=C(N)NC(=O)c1nc(Cl)c(N)nc1N [amiloride]
- inhibition at 1500 µM (MDCK cells [5]; Canis lupus familiaris, MDCK, 1.5 mM amiloride, immediate, read-out: decrease in apparent metabolic rate vs. medium only): 20%
- activation at 1500 µM (MDCK cells [6]; Canis lupus familiaris, MDCK, 1.5 mM amiloride, gradual, read-out: increase of metabolic rate above medium only): ≤ 16%
- metabolic rate after exposure was ceased (MDCK cells [6]; after 1.5 mM amiloride): returned to the original control value and then gradually continued to decline

Compound: NC(N)=O [urea]
- change of pH (Proteus mirabilis): increases the pH

Compound: N#CC(C#N)=NNc1cccc(Cl)c1 [CCCP, carbonylcyanide chlorophenylhydrazone]
- recovery time after removal of the uncoupler ([12]; 20 μmM CCCP): about 20 min.
- stimulation of acidification rate ([12]; 20 μmM CCCP, FIG. 42): prompt, faster than the resolution of the apparatus
- concentration of maximum stimulation of the acidification rate ([12]; dose-response experiments): 2 to 5 µM

Compound: CO [Methanol]
- In-Vivo Irritancy [2, 13]: Moderate-mild

Compound: CC(O)CO (stereo not drawn) [Propylene glycol]
- In-Vivo Irritancy ([2]; in vivo): Mild
